Here are results for 14 compounds from ChEMBL document CHEMBL4130585, “Pimentelamines A-C, Indole Alkaloids Isolated from the Leaves of the Australian Tree Flindersia pimenteliana” (J Nat Prod, 2017).

The test system of data set [1] is Plasmodium falciparum. The data set can be described thus: Antimalarial activity against chloroquine-sensitive Plasmodium falciparum 3D7 after 72 hrs by DAPI staining based confocal microplate imaging method. Format: functional, organism-based. Conditions: 3D7, 72 h.
The subject of data set [2] is HEK293. The data set can be described thus: Cytotoxicity against HEK293 cells after 72 hrs by resazurin dye based assay. It is filed as cell-based. Conditions: Homo sapiens, HEK293, 72 h. A general note: Resazurin is reduced to fluorescent resorufin, in cell work by metabolically active cells.
In data set [3] the test system is Plasmodium falciparum. Nature of the data set: Growth inhibition of chloroquine-resistant Plasmodium falciparum Dd2 at 40 uM after 72 hrs by DAPI staining based confocal microplate imaging method relative to control. It is filed as functional.
A short description of data set [4]: Selectivity index, ratio of IC50 for HEK293 cells to IC50 for chloroquine-sensitive Plasmodium falciparum 3D7. It is filed as toxicity. The conditions noted are these: human, read-out: Ratio IC50.
Data set [5] concerns Plasmodium falciparum. Nature of the data set: Antimalarial activity against chloroquine-resistant Plasmodium falciparum Dd2 after 72 hrs by DAPI staining based confocal microplate imaging method. Format: functional, organism-based. Conditions: Dd2, 72 h.
The subject of data set [6] is Plasmodium falciparum. The data set can be described thus: Antimalarial activity against chloroquine-sensitive Plasmodium falciparum 3D7 at 5 uM after 72 hrs by DAPI staining based confocal microplate imaging method relative to control. It is filed as functional.
The test system of data set [7] is HEK293. The data set can be described thus: Cytotoxicity against HEK293 cells at 40 uM after 72 hrs by resazurin dye based assay. Format: cell-based. Conditions: human, hek293, 72 h.
The test system of data set [8] is Plasmodium falciparum. The data set can be described thus: Antimalarial activity against chloroquine-sensitive Plasmodium falciparum 3D7 at 40 uM after 72 hrs by DAPI staining based confocal microplate imaging method. Format: functional, organism-based.

Structures are written as SMILES. The source made the active and inactive calls. No cut-off for these calls is given here. Some results are limits rather than exact numbers.

Consider `CCc1nc(N)nc(N)c1-c1ccc(Cl)cc1` [PYRIMETHAMINE], for which the IC50 – broadly, the concentration at which inhibition is half-maximal – with Plasmodium falciparum [1] turned out to be 6 nM; in the data set on HEK293 [2], 690 nM. In addition, in the data set on Plasmodium falciparum [3] (Dd2, 72 h, read-out: GI), the inhibition of growth at 40 µM was 59%. For the same compound, the selectivity ratio in data set [4] came to 120.
For `C[C@H]1[C@H](OC(=O)CCC(=O)O)O[C@@H]2O[C@@]3(C)CC[C@H]4[C@H](C)CC[C@@H]1[C@@]24OO3` [ARTESUNATE], the results for the IC50 in the data set with Plasmodium falciparum [1] and with HEK293 [2] were 1 nM and 7000 nM, respectively. Besides, in data set [4], the selectivity ratio was determined as 7990.
On to `CNCCc1c([C@@H]2[C@@H]3[C@H](C=C(C)CC3(C)C)[C@]34Nc5ccccc5[C@]23CCN4C)[nH]c2ccccc12`, for which the IC50 was found to be 220 nM in the data set with Plasmodium falciparum [5], 310 nM in the data set on Plasmodium falciparum [1] and 5000 nM in the data set with HEK293 [2]. Further, the selectivity ratio in data set [4] worked out at 16.
For the compound `CCN(CC)CCCC(C)Nc1ccnc2cc(Cl)ccc12` (stereo not drawn) [CHLOROQUINE], it took 490 nM to reach half-maximal inhibition in the data set on HEK293 [2] (IC50).
`COc1ccc(C[C@H](N)C(=O)N[C@H]2[C@@H](O)[C@H](n3cnc4c(N(C)C)ncnc43)O[C@@H]2CO)cc1` [PUROMYCIN]: the Activity in the data set on Plasmodium falciparum [6] worked out at 100%. Besides, the IC50 with Plasmodium falciparum [5] was 32 nM; with HEK293 [2], 450 to 690 nM. The selectivity ratio in data set [4] was 8.
As for `CC1=C[C@@H]2c3c(CCN(C)C)c4ccccc4n3[C@@H](c3[nH]c4ccccc4c3CCN(C)C)[C@@H]2C(C)(C)C1`, the IC50 with Plasmodium falciparum [5] was 190 nM; in the data set with Plasmodium falciparum [1], 670 nM; with HEK293 [2], 5400 nM. Moreover, in data set [4], the selectivity ratio is 8.
For `CC1=C[C@H]2[C@@H]([C@@H](c3[nH]c4ccccc4c3CCN(C)C)[C@]34CCN(C)[C@]23Nc2ccccc24)C(C)(C)C1` the same measures were 340 nM, 510 nM, 7100 nM and 14.
The corresponding values for `C[C@H]1[C@@H](O)O[C@@H]2O[C@@]3(C)CC[C@H]4[C@H](C)CC[C@@H]1[C@@]24OO3` [ARTENIMOL] are 0.4 nM, 0.3 nM, 9900 nM and 38100.
In the case of `CC1(C)[C@H](Cc2[nH]c3ccccc3c2CC[N+](C)(C)O)O[C@]23OC[C@H](O)[C@H]2OC(=O)[C@]13O.O=C([O-])C(F)(F)F`, the figures for the IC50 in the data set on Plasmodium falciparum [5] and with Plasmodium falciparum [1] were 2700 nM and 3600 nM, respectively. Also, the Activity entry in the data set with HEK293 [7] was “Non-Toxic”. Moreover, in data set [4], the selectivity ratio was above 6.
On to `C[C@@H]1O[C@@H](Oc2c(-c3ccc(O)c(O)c3)oc3cc(O)cc(O)c3c2=O)[C@H](O)[C@H](O)[C@H]1O` [QUERCITRIN], for which, in the data set on Plasmodium falciparum [8], the outcome was inactive. Also, the Activity entry with HEK293 [7] is recorded as “Non-Toxic”. In addition, the “growth inhibition (GI)” value with Plasmodium falciparum [3] is “inactive”.
Regarding `COc1ccc2nc3cc(Cl)ccc3c(Nc3cc(CN4CCCC4)c(O)c(CN4CCCC4)c3)c2n1` [PYRONARIDINE], the values for the IC50 in the data set with Plasmodium falciparum [5] and with HEK293 [2] were 140 nM and 2900 nM, respectively. In data set [4], the selectivity ratio came to 239.
In the case of `CN(C)CCc1c(C[C@@H]2O[C@]34OC[C@H](O)[C@H]3OC(=O)[C@]4(O)C2(C)C)[nH]c2ccccc12.O=C(O)C(F)(F)F`, the outcome with Plasmodium falciparum [8] was inactive. Further, the Activity entry with HEK293 [7] was “Non-Toxic”. In addition, the “growth inhibition (GI)” value in the data set with Plasmodium falciparum [3] is “inactive”.
On to `CC1(C)C=Cc2c(cc3oc(-c4ccc(O)cc4)cc(=O)c3c2O)O1`, for which the figures for the IC50 with Plasmodium falciparum [5] and in the data set on Plasmodium falciparum [1] were 2300 nM and 3400 nM, respectively. Besides, in the data set with HEK293 [7], the Activity entry is reported as “Non-Toxic”. Moreover, in data set [4], the selectivity ratio was above 6.
For the compound `CNCCc1c(C[C@@H]2O[C@]34OC[C@H](O)[C@H]3OC(=O)[C@]4(O)C2(C)C)[nH]c2ccccc12.O=C(O)C(F)(F)F`, in the data set with Plasmodium falciparum [8], the outcome was inactive. The Activity entry with HEK293 [7] is on record as “Non-Toxic”. Moreover, the “growth inhibition (GI)” value in the data set on Plasmodium falciparum [3] was “inactive”.
